How the values were obtained:
[1] = biological target: Recombinant human c-KIT kinase (Homo sapiens (Human), UniProt P10721); experiment: c-KIT kinase chemiluminescence assay (ADP-Glo); assay type: biochemical; settings: ATP 50 μM
In short: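 Recombinant human c-KIT preincubated 30 min at RT in 40 mM Tris pH 7.5, 20 mM MgCl2, 0.1 mg/mL BSA, 50 μM DTT, then reacted 2 h at RT with ATP and polyEY substrate. ADP-Glo luminescence readout; activity normalized to high/low controls, IC50 and Hill coefficient from inhibitor-versus-normalized-response fit.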

M-07e cells = experiment: M-07e cellular assay (SCF-mediated cell proliferation); assay type: cell-based; settings: Homo sapiens, 72 hours, CellTiter Glo
In short: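 CellTiter Glo luminescence after 72 h compound exposure in SCF (EC90)-stimulated M-07e cells expressing endogenous human c-KIT.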

Sequence of Recombinant human c-KIT kinase (P10721 26-976): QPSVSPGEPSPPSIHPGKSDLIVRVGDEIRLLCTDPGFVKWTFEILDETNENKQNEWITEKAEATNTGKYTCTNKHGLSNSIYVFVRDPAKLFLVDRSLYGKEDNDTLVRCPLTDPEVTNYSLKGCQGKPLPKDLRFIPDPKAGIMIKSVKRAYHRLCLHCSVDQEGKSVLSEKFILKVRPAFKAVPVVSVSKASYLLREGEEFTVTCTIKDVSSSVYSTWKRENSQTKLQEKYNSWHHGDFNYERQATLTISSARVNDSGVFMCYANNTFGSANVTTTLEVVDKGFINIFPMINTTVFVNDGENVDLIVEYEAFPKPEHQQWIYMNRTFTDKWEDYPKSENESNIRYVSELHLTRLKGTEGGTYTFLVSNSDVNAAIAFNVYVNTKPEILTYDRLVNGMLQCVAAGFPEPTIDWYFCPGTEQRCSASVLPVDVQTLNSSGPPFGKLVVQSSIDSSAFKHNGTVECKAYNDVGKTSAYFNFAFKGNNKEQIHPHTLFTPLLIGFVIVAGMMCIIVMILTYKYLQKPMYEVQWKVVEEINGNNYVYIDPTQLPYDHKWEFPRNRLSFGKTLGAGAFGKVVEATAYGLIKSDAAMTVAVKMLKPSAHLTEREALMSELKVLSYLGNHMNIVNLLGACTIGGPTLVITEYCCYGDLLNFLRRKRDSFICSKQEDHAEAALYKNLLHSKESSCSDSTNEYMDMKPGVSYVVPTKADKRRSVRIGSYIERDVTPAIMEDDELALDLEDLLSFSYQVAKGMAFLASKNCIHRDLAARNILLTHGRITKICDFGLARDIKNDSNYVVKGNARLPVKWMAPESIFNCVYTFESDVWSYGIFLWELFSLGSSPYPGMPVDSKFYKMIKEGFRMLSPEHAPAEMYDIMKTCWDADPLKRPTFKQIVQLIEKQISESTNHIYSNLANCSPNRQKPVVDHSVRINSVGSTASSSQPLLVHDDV

| Compound | IC50 [1] [nM] | EC50 (M-07e cells) [nM] |
| --- | --- | --- |
| COC(=O)N1CC2(CC(c3nc(-c4ccc(C)c(NC(=O)c5cnn6ccc(N7CC8(COC8)C7)cc56)c4)no3)C2)C1 [Example 281-133] | 100 to 1000 | 100 to 1000 |
| COC(=O)N1CCC(c2nc(-c3ccc(C)c(NC(=O)c4cnn5ccc(N6CC7(C6)CC(O)(C(F)F)C7)cc45)c3)no2)CC1 [Example 281-134] | < 100 | < 100 |
| Cc1ccc(-c2noc([C@]3(C)C[C@H](OC(F)F)C3)n2)cc1NC(=O)c1cnn2ccc(N3CC4(COC4)C3)cc12 [Example 281] | < 100 | < 100 |
| COc1cccc(-c2ncc(C(=O)Nc3cc(-c4noc([C@H]5C[C@@H]5F)n4)ccc3C)o2)c1 [Example 283] | 100 to 1000 | < 100 |
| COc1ccccc1-c1ncc(C(=O)Nc2cc(-c3noc([C@H]4C[C@@H]4F)n3)ccc2C)o1 [Example 284] | > 1000 | > 1000 |
| Cc1ccc(-c2noc([C@H]3C[C@@H]3F)n2)cc1NC(=O)c1cnc(-c2cccnc2)o1 [Example 285] | > 1000 | > 1000 |
| Cc1ccc(-c2noc([C@H]3C[C@@H]3F)n2)cc1NC(=O)c1cnc(-c2ccncc2)o1 [Example 286] | > 1000 | 100 to 1000 |
| Cc1ccc(-c2noc([C@H]3C[C@@H]3F)n2)cc1NC(=O)c1cnc(-c2ccc(N)nc2)o1 [Example 287] | 100 to 1000 | 100 to 1000 |
| Cc1ccc(-c2noc([C@H]3C[C@@H]3F)n2)cc1NC(=O)c1cnc(-c2cccc(N3CC4(COC4)C3)c2)o1 [Example 288] | 100 to 1000 | 100 to 1000 |
| Cc1ccc(-c2noc([C@H]3C[C@@H]3F)n2)cc1NC(=O)c1cnc(-c2ccccc2N2CC3(COC3)C2)o1 [Example 289] | > 1000 | > 1000 |
| Cc1ccc(-c2noc([C@H]3C[C@@H]3F)n2)cc1NC(=O)c1cnc(-c2ccnc(N)c2)o1 [Example 290] | 100 to 1000 | 100 to 1000 |
| Cc1ccc(-c2noc([C@H]3C[C@@H]3F)n2)cc1NC(=O)c1cnc(-c2ccnc(NC(=O)OC(C)(C)C)c2)o1 [Example 291] | > 1000 | > 1000 |
| Cc1ccc(-c2noc([C@H]3C[C@@H]3F)n2)cc1NC(=O)c1cnc(-c2ccc3[nH]ncc3c2)o1 [Example 292] | < 100 | < 100 |
| Cc1ccc(-c2noc([C@H]3C[C@@H]3F)n2)cc1NC(=O)c1cnc(-c2ccc3[nH]ccc3c2)o1 [Example 293] | < 100 | < 100 |
| Cc1ccc(-c2noc([C@H]3C[C@@H]3F)n2)cc1NC(=O)c1cnc(-c2ccc3cn[nH]c3c2)o1 [Example 294] | < 100 | 100 to 1000 |
| Cc1ccc(-c2noc([C@H]3C[C@@H]3F)n2)cc1NC(=O)c1cnc(-c2ccc3cc[nH]c3c2)o1 [Example 295] | < 100 | 100 to 1000 |
| Cc1ccc(-c2noc([C@H]3C[C@@H]3F)n2)cc1NC(=O)c1cnc(-c2ccccn2)o1 [Example 296] | > 1000 | > 1000 |
| Cc1ccc(-c2noc([C@H]3C[C@@H]3F)n2)cc1NC(=O)c1cnc(-c2ccc(N3CC4(COC4)C3)cc2)o1 [Example 297] | 100 to 1000 | 100 to 1000 |
| Cc1ccc(-c2noc([C@H]3C[C@@H]3F)n2)cc1NC(=O)c1cnc(-c2ccc(NC(=O)OC(C)(C)C)nc2)o1 [Example 298] | > 1000 | 100 to 1000 |
| Cc1ccc(-c2noc([C@H]3C[C@@H]3F)n2)cc1NC(=O)c1cnc(-c2ccc3c(c2)CC(=O)N3)o1 [Example 299] | < 100 | < 100 |
| Cc1ccc(-c2noc([C@H]3C[C@@H]3F)n2)cc1NC(=O)c1cnc(-c2ccc3[nH]c(=O)oc3c2)o1 [Example 300] | 100 to 1000 | 100 to 1000 |
| Cc1ccc(-c2noc([C@H]3C[C@@H]3F)n2)cc1NC(=O)c1cnc(-c2ccc3c(c2)NC(=O)C3)o1 [Example 301] | 100 to 1000 | > 1000 |
| Cc1ccc(-c2noc([C@H]3C[C@@H]3F)n2)cc1NC(=O)c1cnc(-c2ccc3[nH]c(=O)[nH]c3c2)o1 [Example 302] | < 100 | > 1000 |
| Cc1ccc(-c2noc([C@H]3C[C@@H]3F)n2)cc1NC(=O)c1cnc(-c2ccc3[nH]c4ccccc4c3c2)o1 [Example 303] | 100 to 1000 | 100 to 1000 |
| Cc1ccc(-c2noc([C@H]3C[C@@H]3F)n2)cc1NC(=O)c1cnc(-c2ccc3[nH]c(C(F)(F)F)cc3c2)o1 [Example 304] | < 100 | < 100 |
| Cc1ccc(-c2noc([C@H]3C[C@@H]3F)n2)cc1NC(=O)c1cnc(-c2cccc(N)n2)o1 [Example 305] | > 1000 | > 1000 |
| Cc1ccc(-c2noc([C@H]3C[C@@H]3F)n2)cc1NC(=O)c1cnc(-c2cccc(NC(=O)OC(C)(C)C)n2)o1 [Example 306] | > 1000 | > 1000 |

| Compound | IC50 [1] [nM] | EC50 (M-07e cells) [nM] |
| --- | --- | --- |
| Cc1ccc(-c2noc([C@H]3C[C@@H]3F)n2)cc1NC(=O)c1cnc(-c2ccc3oc(=O)[nH]c3c2)o1 [Example 307] | > 1000 | 100 to 1000 |
| Cc1ccc(-c2noc([C@H]3C[C@@H]3F)n2)cc1NC(=O)c1cnc(-c2ccc3[nH]c(C#N)cc3c2)o1 [Example 308-1] | 100 to 1000 | 100 to 1000 |
| Cc1ccc(-c2noc([C@H]3C[C@@H](C(F)(F)F)C3)n2)cc1NC(=O)c1cnc(-c2ccc3c(c2)CC(=O)N3)o1 [Example 308-2] | < 100 | < 100 |
| Cc1ccc(-c2noc([C@H]3C[C@@H](OC(F)(F)F)C3)n2)cc1NC(=O)c1cnc(-c2ccc3c(c2)CC(=O)N3)o1 [Example 308-3] | < 100 | < 100 |
| Cc1ccc(-c2noc([C@H]3C[C@@H]3F)n2)cc1NC(=O)c1cnc(-c2ccc3c(c2)C2(CC2)C(=O)N3)o1 [Example 308-4] | 100 to 1000 | 100 to 1000 |
| Cc1ccc(-c2noc([C@H]3C[C@@H]3F)n2)cc1NC(=O)c1cnc(-n2cccn2)o1 [Example 308-5] | > 1000 | > 1000 |
| Cc1cc(C)n(-c2ncc(C(=O)Nc3cc(-c4noc([C@H]5C[C@@H]5F)n4)ccc3C)o2)n1 [Example 308-6] | > 1000 | > 1000 |
| Cc1ccc(-c2noc([C@H]3C[C@@H]3F)n2)cc1NC(=O)c1cnc(-c2c(C)nn(CC(C)(C)O)c2C)o1 [Example 308-7] | > 1000 | > 1000 |
| Cc1ccc(-c2noc([C@H]3C[C@@H]3F)n2)cc1NC(=O)c1cnc(-c2ccc3c(c2)C2(CCN(C(=O)OC(C)(C)C)CC2)C(=O)N3)o1 [Example 308-8] | > 1000 | 100 to 1000 |
| Cc1ccc(-c2noc([C@H]3C[C@@H]3F)n2)cc1NC(=O)c1cnc(-c2ccc3c(c2)C2(CCNCC2)C(=O)N3)o1 [Example 308-9] | 100 to 1000 | > 1000 |
| Cc1cc(F)c(-c2noc([C@H]3C[C@@H]3F)n2)cc1NC(=O)c1cnc(-c2ccc3c(cnn3C(=O)OC(C)(C)C)c2)o1 [Example 308-10] | > 1000 | 100 to 1000 |
| Cc1cc(F)c(-c2noc([C@H]3C[C@@H]3F)n2)cc1NC(=O)c1cnc(-c2ccc3[nH]ncc3c2)o1 [Example 308-11] | 100 to 1000 | 100 to 1000 |
| Cc1ncc(-c2noc([C@H]3C[C@@H]3F)n2)cc1NC(=O)c1cnc(-c2ccc3c(c2)CC(=O)N3)o1 [Example 308-12] | > 1000 | 100 to 1000 |
| Cc1ccc(-c2noc([C@H]3C[C@@H]3F)n2)cc1NC(=O)c1cnc(-c2ccc(-n3cccn3)cc2)o1 [Example 308-13] | > 1000 | > 1000 |
| Cc1ccc(-c2noc([C@H]3C[C@@H]3F)n2)cc1NC(=O)c1cnc(-c2ccc3[nH]c(=O)ccc3c2)o1 [Example 308-14] | < 100 | < 100 |
| Cc1ccc(-c2noc([C@H]3C[C@@H]3F)n2)cc1NC(=O)c1cnc(-c2ccc3c(c2)CCC(=O)N3)o1 [Example 308-15] | 100 to 1000 | 100 to 1000 |
| Cc1ccc(-c2noc([C@H]3C[C@@H]3F)n2)cc1NC(=O)c1cnc(-c2ccc(-c3cnn(C)c3)cc2)o1 [Example 308-16] | 100 to 1000 | 100 to 1000 |
| Cc1ccc(-c2noc([C@H]3C[C@@H]3F)n2)cc1NC(=O)c1cnc(-c2cnc3[nH]ccc3c2)o1 [Example 308-17] | < 100 | < 100 |
| Cc1ccc(-c2noc([C@H]3C[C@@H]3F)n2)cc1NC(=O)c1cnc(-c2ccc3nccn3c2)o1 [Example 308-18] | 100 to 1000 | 100 to 1000 |
| CC(=O)Nc1ccc(-c2ncc(C(=O)Nc3cc(-c4noc([C@H]5C[C@@H]5F)n4)ccc3C)o2)cc1 [Example 308-19] | 100 to 1000 | 100 to 1000 |
| CC(=O)Nc1ccc(-c2ncc(C(=O)Nc3cc(-c4noc([C@H]5C[C@@H]5F)n4)ccc3C)o2)cn1 [Example 308-20] | > 1000 | 100 to 1000 |
| Cc1ccc(-c2noc([C@H]3C[C@@H]3F)n2)cc1NC(=O)c1cnc(-c2ccc3[nH]nc(C)c3c2)o1 [Example 308-21] | < 100 | < 100 |
| Cc1ccc(-c2noc([C@H]3C[C@@H]3F)n2)cc1NC(=O)c1cnc(-c2ccc(NS(C)(=O)=O)cc2)o1 [Example 308-22] | 100 to 1000 | 100 to 1000 |
| Cc1ccc(-c2noc([C@H]3C[C@@H]3F)n2)cc1NC(=O)c1cnc(-c2cccc3cn[nH]c23)o1 [Example 308-23] | < 100 | > 1000 |
| Cc1ccc(-c2noc([C@H]3C[C@@H]3F)n2)cc1NC(=O)c1cnc(-c2ccc3c(c2)OCCN3)o1 [Example 308-24] | < 100 | < 100 |
| Cc1ccc(-c2noc([C@H]3C[C@@H]3F)n2)cc1NC(=O)c1cnc(-c2ccc3c(c2)OC(C)(C)C(=O)N3)o1 [Example 308-25] | 100 to 1000 | 100 to 1000 |
| CCOC(=O)c1cc2cc(-c3ncc(C(=O)Nc4cc(-c5noc([C@H]6C[C@@H]6F)n5)ccc4C)o3)ccc2[nH]1 [Example 308-26] | < 100 | 100 to 1000 |
